Experimental findings from ChEMBL document CHEMBL5550215, “Discovery of Novel Imidazo[1,2-a]pyridine-Based HDAC6 Inhibitors as an Anticarcinogen with a Cardioprotective Effect” (J Med Chem, 2024) are described below.

The test system of assay [1] is H9c2. Kind of assay: Protection against H2O2 induced myocardial cell injury in rat H9c2 cells at 10 uM pretreated for 24 hrs followed by H2O2 exposure and measured after 1.5 hrs (reference value: 17.91 to 57.32%). The assay is classed as functional. Conditions: time 25.5 hrs.
For assay [2], the system named is H9c2. Kind of assay: Protection against H2O2 induced myocardial cell injury in rat H9c2 cells assessed as fold change at 10 uM pretreated for 24 hrs followed by H2O2 exposure and measured after 1.5 hrs relative to H2O2 alone. Type of assay: functional. To be noted: time 25.5 hrs.

Consider `Cc1ccc(-c2cc(CNc3ccc(C(=O)O)cc3)c3nccn3c2)cc1`, for which the Activity in the assay on H9c2 [1] is 18.02%. Further, in the assay on H9c2 [2], the “fold change (FC)” value amounted to 1.01.
Take `COc1cc(-c2cc(C(=O)N3CCOCC3)c3nccn3c2)cc(OC)c1OC`: the Activity with H9c2 [1] worked out at 34.81%. Further, in the assay with H9c2 [2], the “fold change (FC)” value was found to be 0.73.
The like results for `COc1ccc(-c2cc(CNc3ccc(C(=O)NO)cc3)c3nccn3c2)cc1` were, in that order, 57.47% and 1.56.
For `Cc1cccc(-c2cc(CNc3ccc(C(=O)NO)cc3)c3nccn3c2)c1`, in that order: 50.3% and 1.36.
Consider `Cc1ccccc1-c1cc(C(=O)Nc2ccc(C(=O)NO)cc2)c2nccn2c1`, for which the Activity in the assay with H9c2 [1] turned out to be 56.16%. Moreover, the “fold change (FC)” value with H9c2 [2] is given as 1.57.
For `O=C(NO)c1ccc(CNc2cc(-c3ccccc3F)cn3ccnc23)cc1`, in that order: 54.74% and 1.13.
In the case of `COc1cc(-c2cc(C(=O)Nc3ccccc3)c3nccn3c2)cc(OC)c1OC`, in the assay on H9c2 [1], the Activity was 61.69%. Moreover, the “fold change (FC)” value with H9c2 [2] worked out at 1.23.
For `Cc1ccc(-c2cc(CNc3ccc(C(=O)NNc4ccccc4F)cc3)c3nccn3c2)cc1`, in that order: 35.98% and 1.19.
For the compound `Cc1ccc(-c2cc(CNc3ccc(C(=O)NN)cc3)c3nccn3c2)cc1`, in the assay on H9c2 [1], the Activity came to 85.94%. Also, in the assay with H9c2 [2], the “fold change (FC)” value was 2.63.
For `Cc1ccccc1-c1cc(CNc2ccc(C(=O)NO)cc2)c2nccn2c1`, in that order: 67.73% and 1.38.
As for `COc1ccccc1-c1cc(CNc2ccc(C(=O)NO)cc2)c2nccn2c1`, in the assay with H9c2 [1], the Activity is 67.63%. Further, in the assay on H9c2 [2], the “fold change (FC)” value turned out to be 1.9.
As for `O=C(NO)c1ccc(NCc2cc(-c3cccc(F)c3)cn3ccnc23)cc1`, the Activity in the assay with H9c2 [1] came to 53.76%. Moreover, in the assay on H9c2 [2], the “fold change (FC)” value is given as 1.46.
For `COc1cc(-c2cc(C(=O)NCCN3CCN(C(=O)OC(C)(C)C)CC3)c3ccccc3n2)cc(OC)c1OC`, in that order: 53.37% and 1.19.
Regarding `Cc1ccc(-c2cc(NCc3ccc(C(=O)NO)cc3)c3nccn3c2)cc1`, the Activity in the assay on H9c2 [1] came to 74.15%. The “fold change (FC)” value in the assay with H9c2 [2] amounted to 2.08.
The like results for `Cc1ccc(-c2cc(CNc3ccc(C(=O)NO)cc3)c3nccn3c2)cc1` were, in that order, 68.72% and 1.93.
In the case of `CCc1ccc(-c2cc(CNc3ccc(C(=O)NO)cc3)c3nccn3c2)cc1`, in the assay with H9c2 [1], the Activity came out at 63.8%. Besides, the “fold change (FC)” value in the assay with H9c2 [2] is 1.73.
As to `COc1ccc(-c2cc(CNc3ccc(C(=O)NO)cc3)c3nccn3c2)c(OC)c1`, in the assay with H9c2 [1], the Activity came out at 56.04%. In addition, the “fold change (FC)” value in the assay with H9c2 [2] turned out to be 1.52.
As to `Cc1ccc(-c2cc(CNc3ccc(C(=O)NNc4ccccc4)cc3)c3nccn3c2)cc1`, the Activity with H9c2 [1] came out at 64.68%. The “fold change (FC)” value with H9c2 [2] is 2.14.
The like results for `COc1ccccc1CNC(=O)c1ccc(NCc2cc(-c3ccc(C)cc3)cn3ccnc23)cc1` were, in that order, 56.7% and 1.88.
On to `CC(C)c1ccc(-c2cc(CNc3ccc(C(=O)NO)cc3)c3nccn3c2)cc1`, for which, in the assay on H9c2 [1], the Activity amounted to 54.12%. Besides, the “fold change (FC)” value with H9c2 [2] was determined as 1.47.
The like results for `Cc1cccc(-c2cc(NCc3ccc(C(=O)NO)cc3)c3nccn3c2)c1` were, in that order, 49.08% and 1.01.
For `COc1cc(-c2cc(C(=O)NCc3ccccc3)c3nccn3c2)cc(OC)c1OC`, in that order: 56.67% and 0.99.
The like results for `Cc1cccc(-c2cc(C(=O)Nc3ccc(C(=O)NO)cc3)c3nccn3c2)c1` were, in that order, 78.26% and 2.19.
For `O=C(NO)c1ccc(NC(=O)c2cc(-c3ccc(F)cc3)cn3ccnc23)cc1`, the Activity in the assay with H9c2 [1] is listed as 74.82%. Moreover, the “fold change (FC)” value in the assay on H9c2 [2] is listed as 2.11.
With `Cc1ccc(-c2cc(C(=O)Nc3ccc(C(=O)NO)cc3)c3nccn3c2)cc1`, in the assay on H9c2 [1], the Activity is listed as 65.82%. Further, the “fold change (FC)” value in the assay on H9c2 [2] is given as 1.84.
Regarding `O=C(NO)c1ccc(CNc2cc(-c3ccc(F)cc3)cn3ccnc23)cc1`, the Activity with H9c2 [1] turned out to be 90.19%. The “fold change (FC)” value with H9c2 [2] came out at 1.86.
`CCc1ccccc1-c1cc(CNc2ccc(C(=O)NO)cc2)c2nccn2c1`: the Activity in the assay with H9c2 [1] is on record as 50.13%. For the same compound, the “fold change (FC)” value with H9c2 [2] amounted to 2.01.
The like results for `Cc1ccc(-c2cc(CNc3ccc(C(=O)NOC4CCCCO4)cc3)c3nccn3c2)cc1` (stereo not given) were, in that order, 59.02% and 1.69.
The like results for `Cc1ccc(-c2cc(CNc3ccc(C(=O)NNC(C)(C)C)cc3)c3nccn3c2)cc1` were, in that order, 65.75% and 2.17.
Consider `O=C(NO)c1ccc(NCc2cc(-c3ccc(F)cc3)cn3ccnc23)cc1`, for which the Activity with H9c2 [1] was found to be 66.3%. In addition, the “fold change (FC)” value in the assay with H9c2 [2] is listed as 1.86.
For the compound `Cc1ccc(-c2cc(CNc3ccc(C(=O)NO)cc3Cl)c3nccn3c2)cc1`, the Activity in the assay on H9c2 [1] turned out to be 108.57%. Moreover, the “fold change (FC)” value with H9c2 [2] turned out to be 2.79.
The like results for `Cc1ccc(-c2cc(CNc3ccc(C(=O)N4CCOCC4)cc3)c3nccn3c2)cc1` were, in that order, 62.08% and 2.05.
As to `Cc1ccccc1-c1cc(NCc2ccc(C(=O)NO)cc2)c2nccn2c1`, the Activity with H9c2 [1] is recorded as 67.83%. The “fold change (FC)” value in the assay with H9c2 [2] amounted to 1.4.
Take `O=C(NO)c1ccc(NCc2cc(-c3ccccc3F)cn3ccnc23)cc1`: the Activity in the assay on H9c2 [1] came to 57.23%. Besides, in the assay with H9c2 [2], the “fold change (FC)” value stood at 1.55.
Take `Cc1ccc(-c2cc(CNc3ccc(C(=O)NO)cc3C)c3nccn3c2)cc1`: the Activity with H9c2 [1] is reported as 53.88%. In the assay with H9c2 [2], the “fold change (FC)” value is 1.51.
Take `Cc1ccc(-c2cc(CNc3ccc(C(=O)NO)cc3F)c3nccn3c2)cc1`: in the assay on H9c2 [1], the Activity is 52.82%. Moreover, the “fold change (FC)” value in the assay on H9c2 [2] came out at 1.36.
For `Cc1ccc(-c2cc(CNc3ccc(C(=O)NO)cn3)c3nccn3c2)cc1`, in that order: 58.82% and 1.27.
`COc1ccccc1NC(=O)c1ccc(NCc2cc(-c3ccc(C)cc3)cn3ccnc23)cc1`: in the assay with H9c2 [1], the Activity is 48.69%. Moreover, in the assay with H9c2 [2], the “fold change (FC)” value stood at 1.61.
The like results for `COc1cc(-c2cc(C(=O)NCCN3CCN(C(=O)OC(C)(C)C)CC3)c3nccn3c2)cc(OC)c1OC` were, in that order, 49.54% and 1.1.
For `O=C(NO)c1ccc(NCc2cc(-c3ccccc3Cl)cn3ccnc23)cc1`, in that order: 57.08% and 1.6.
The like results for `COc1cc(-c2cc(C(=O)NCCN3CCOCC3)c3nccn3c2)cc(OC)c1OC` were, in that order, 36.19% and 0.63.
Turning to `O=C(NO)c1ccc(NCc2cc(-c3cccs3)cn3ccnc23)cc1`, the Activity in the assay on H9c2 [1] turned out to be 68.84%. The “fold change (FC)” value in the assay with H9c2 [2] is 1.87.
For `Cc1ccc(-c2cc(CNc3ccc(C(=O)NNC(C)C)cc3)c3nccn3c2)cc1`, in that order: 54.92% and 1.82.
For `Cc1ccc(-c2cc(CNc3ccc(C(=O)Nc4ccccc4N)cc3)c3nccn3c2)cc1`, in that order: 21.76% and 1.21.
The like results for `Cc1ccc(-c2cc(CNc3ccc(C(=O)NNC(=O)OC(C)(C)C)cc3)c3nccn3c2)cc1` were, in that order, 64.23% and 2.12.
